Assays:
[1] = system: MCF7; assay: Breast Cancer Cell Proliferation Assay (MCF-7), Cell Titer-Glo; type: cell-based; details: Homo sapiens, MCF7, 120 h, MCF7 cells, 5 days of compound exposure
Method in brief: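 MCF7 cells in phenol red-free DMEM/F12 with charcoal-stripped FBS exposed 5 days to 10-point dilutions (10–0.000005 μM final), 17β-estradiol as control. Viability by CellTiter-Glo luminescence, background-subtracted and expressed relative to estrogen-only treated cells; day-1 pretreatment wells plated.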

[2] = Pharmacokinetic Determination (Mouse PK); type: in vivo, female CD-1 mice; details: female; for Kp at 2 h: CD-1, PO 10.0 mg/kg, Brain concentration vs plasma concentration at 2 hours post dosing, read-out: B/P ratio; for bioavailability: PO 10.0 mg/kg vs IV 3.0 mg/kg
Experimental: Pharmacokinetic Determination
Grouping female CD-1 mice weighing 20-30 g randomly to three groups; one group was administered with test compound at a dose of 3.0 mg/kg by intravenous injection, the other two groups were administered with test compound at a dose of 10.0 mg/kg by oral. The formulation for IV groups is DMSO/PEG400/30% HP-β-CD (5/20/75) and the formulation for PO groups is 25% HP-β-CD in 25 mM citrate buffer (pH3.0). After administering, blood samples of intravenous injection group were collected at time points of predose, 0.0833, 0.25, 0.5, 1, 2, 4, 8, 12 and 24 h; blood samples of oral group were collected at time points of predose, 0.25, 0.5, 1, 2, 4, 8, 12, and 24 h. Both blood samples and brain samples were collected at 2 hours post dosing for the second PO group. Standard curve was plotted based on concentrations of the samples in a suitable range, the concentrations of test compounds in plasma samples and brain samples were determined by using LC-MS/MS. Pharmacokinetic parameters were calculated according to drug concentration-time curve using a noncompartmental method by WinNonLin (Phoenix™, version 6.1) or other similar software.

[3] = system: MCF-7 Human Breast Cancer Orthotopic Model; assay: Efficacy Study on MCF-7 Human Breast Cancer Orthotopic Model (tumor growth inhibition); type: in vivo, mouse; details: tumor growth inhibition = (1−(Td−T0)/(Cd−C0))×100%; MCF-7 orthotopic model
Experimental: Efficacy Study on MCF-7 Human Breast Cancer Orthotopic Model
The MCF-7 tumor cell line were maintained in vitro as monolayer culture in DMEM Medium supplemented with 15% heat inactivated fetal bovine serum at 37° C. in an atmosphere of 5% CO2 in air. The medium were renewed every 2 to 3 days and tumor cells were routinely subcultured at a confluence of 80%-90% by trypsin-EDTA, not to exceed 4-5 passages. The cells growing in an exponential growth phase were harvested and counted for tumor inoculation.
Each mouse was inoculated subcutaneously on the 2nd right mammary fat pad with the single cell suspension of 95% viable tumor cells (1.5×10^7) in 200 μL DMEM Matrigel mixture (1:1 ratio) without serum for the tumor development. The treatments were started when mean tumor size reached 195 mm^3.
The measurement of tumor size was conducted twice a week with a caliper and the tumor volume (mm^3) was estimated using the formula: TV=a×b^2/2 throughout the study, where “a” and “b” was long and short diameters of a tumor, respectively. The TVs were used for calculation of the tumor growth inhibition (TGI, an indicator of antitumor effectiveness) value using the formula: (1−(Td−T0)/(Cd−C0))×100%. Td and Cd are the mean tumor volumes of the treated and control animals, and T0 and C0 are the mean tumor volumes of the treated and control animals at the start of the experiment. The tumor regression was defined as individual tumor volume decrease (terminal TV compares to initial TV). The percent tumor regression was calculated using the formula: (1−(Td/T0))×100%.

[4] = Plasma and tumor PK analysis post final dosing in MCF-7 orthotopic model; type: in vivo, mouse; details: MCF-7 orthotopic model mice; for Tumor AUC: tumor samples 2 h, 8 h and 24 h post final dosing; for AUC / Kp: mouse; for AUC: plasma, post final dosing, 0.25-24 h; for Kp: tumor AUC vs plasma AUC, read-out: Tumor/Plasma ratio
Experimental: Plasma samples were collected with seven time points (0.25 h, 0.5 h, 1 h, 2 h, 4 h, 8 h, and 24 h) post final dosing for PK analysis. Tumor samples were collected with three time points (2 h, 8 h and 24 h) post final dosing for PK analysis.

IC50 [1] [nM]	Kp at 2 h [2]	AUC(0-t) ([2]; CD-1, plasma, IV, 3.0 mg/kg) [µM·h]	bioavailability ([2]; CD-1, plasma) [%]	AUC(0-t) ([2]; CD-1, plasma, PO, 10.0 mg/kg) [µM·h]	Cmax ([2]; CD-1, plasma, PO, 10.0 mg/kg) [nM]	Tmax ([2]; CD-1, plasma, PO, 10.0 mg/kg) [h]	Tumor AUC [4] [ng·h/mL]	AUC [4] [ng·h/mL]	Kp [4]	clearance ([2]; CD-1, plasma, IV, 3.0 mg/kg) [mL/min/kg]	half-life ([2]; CD-1, plasma, PO, 10.0 mg/kg) [h]	SMILES	TGI [3] [%]
≤ 25	12	1.03	87.7	3	240	2	360399	6780	53.1			CCCN1CC(Nc2ccc([C@@H]3c4[nH]c5ccccc5c4C[C@@H](C)N3C34CC(C3)C4)cc2)C1 [Compound 31, N-(4-((1R,3R)-2-(bicyclo[1.1.1]pentan-1-yl)-3-methyl-2,3,4,9-tetrahydro-1H-pyrido[3,4-b]indol-1-yl)phenyl)-1-propylazetidin-3-amine]	106
≤ 25	29.4	1.51	55.4	2.79	220	1	296719	5310	55.9	40		C[C@@H]1Cc2c([nH]c3ccccc23)[C@@H](c2ccc(N[C@H]3CCN(CCCF)C3)cc2)N1C12CC(C1)C2 [Compound 42, (S)—N-(4-((1R,3R)-2-(bicyclo[1.1.1]pentan-1-yl)-3-methyl-2,3,4,9-tetrahydro-1H-pyrido[3,4-b]indol-1-yl)phenyl)-1-(3-fluoropropyl)pyrrolidin-3-amine]	106
≤ 25	0.17			13.3	960	4	183743	10500	17.5		8.66	C[C@@H]1Cc2c([nH]c3ccccc23)[C@@H](c2c(F)cc(NC3CN(CCCF)C3)cc2F)N1CC(F)(F)CO [GDC9545, reference compound]	130

— patent US11999728B2, “Estrogen receptor modulators” (Recurium IP Holdings, LLC, priority 2020, dated 2024)
